Assay results from US20190150481A1, “COMPOSITIONS AND METHODS OF IMPROVING DIETARY PHOSPHORUS AND CALCIUM UTILIZATION IN ANIMALS” (Novus International, Inc., priority 2017, published 2019).
Several values for one entry are separate records, joined by “and”; a condition that tells them apart may be missing. Equal values may be shown once.

Key:
Type in all cases: in vivo
nursery pigs [1] = test: Gain to feed ratio during d 15 to 28 in nursery pigs; details: for G:F (d 15 to 28): 80 ppm Cu
Description: (§1) A total of 288 weaning barrows [TR-4×PIC C-22, initial body weight (BW)=5.71±0.71 kg] were allotted to 1 of 8 dietary treatments according to randomized complete block design. Pigs were blocked by initial body weight. The study started from weaning (day 0) to day 42 post-weaning. Three-phase feeding program was used in this study, in which day 0 to 14, day 15 to 28, and day 29 to 42 were considered as nursing phase 1, 2, and 3, respectively. A basal diet for each phase was formulated to meet the energy and nutrient requirement for different stages of pigs according to previously published recommendation,^1 with the exception of P [0.15% reduction of standardized total tract digestible (STTD) P] and Ca (adjusted according to the fixed ratio of Ca/STTD P=2.15). Eight experimental diets were formulated based on basal diet supplemented with phytase (0 or 500 FTU/kg), Zn sources (2000 ppm Zn from ZnO in phase 1 and 2, 100 ppm Zn from ZnO in phase 3; 100 ppm Zn from Zn(HMTBA)2 from phase 1 to 3) and Cu sources (150, 80, 80 ppm Cu from CuSO4 or Cu(HMTBA)2 in phase 1, 2, and 3, respectively) in a 2×2×2 factorial treatment design. Titanium dioxide at 0.4% was included in phase 2 diets to measure Ca and P digestibility.
(§2) SAS 9.4 (SAS Inst. Inc., Gary, N.C.) was used for all data analysis. Pen served as the experimental unit. The LSMEANS statement was be used to calculate the least square means. Tukey-Kramer adjustment was used for multiple comparisons of the least square means. Pooled SEM will be calculated for each measurement. A probability of P 0.05 will be considered as significant and 0.05<P≤0.10 will be declared as a trend. Mineral sources (Zn and Cu), phytase and their interactions were considered as the main effect, while block was considered as the random effect.

nursery pigs [2] = test: Bone (third metacarpal) Ca, P and ash concentrations in nursery pigs on day 42; details: for Bone Ca (DM basis) / Bone P (DM basis) / Bone ash (DM basis): day 42
Description: as §1
On day 42, 2 pigs from each pen were euthanized to collect the right front legs. The third metacarpal bone from each right front leg was used to determine DM, Ca, P, and ash concentrations.
as §2

nursery pigs [3] = test: Standardized total tract digestibility (STTD) of Ca and P in nursery pigs, fecal grab sampling day 24 to 26, titanium dioxide marker; details: for STTD of Ca / STTD of P: ZnO 2000 ppm Zn vs Zn(HMTBA)2 100 ppm Zn, nursery phase 2
Description: as §1
Fresh fecal samples were collected via grab sampling from each pig per pen at least twice per day from day 24 to 26. Fecal samples collected from the same pen during the 3 days were pooled together, and a subsample was placed inside a large oven set at 65° C. Oven dried fecal samples were stored at room temperature until analysis for dry matter (DM), Ca, P, and titanium (Ti).
The apparent total tract digestibility (ATTD) coefficient for Ca and P in each treatment was calculated using the following formula:
ATTD of Ca, %=[1−(Cafeces/Cadiet)×(Mdiet/Mfeces)]×100 (Equation 1)
ATTD of P, %=[1−(Pfeces/Pdiet)×Mdiet/Mfeces)]×100 (Equation 2) where Cafeces and Cadiet represented Ca concentrations (g/kg) in feces and diet DM, respectively; Pfeces and Pdiet represented P concentrations (g/kg) in feces and diet DM; Mdiet and Mdigesta represent the marker concentrations (g/kg) in diet and feces DM, respectively.
The standard total tract digestibility (STTD) of Ca was calculated according to the following equation:
STTD of Ca, %=[ATTD of Ca+(basal ECaLend/Cadiet)×100] (Equation 3) where Cadiet represented Ca concentrations (g/kg) in diet DM, respectively; basal ECaLend represented basal endogenous loss of Ca which was approximately 330 mg/kg DMI.
The standard total tract digestibility (STTD) of P was calculated according to the following equation:
STTD of P, %=[ATTD of P+(basal EPLend/Pdiet)×100] (Equation 4) where Pdiet represented P concentrations (g/kg) in diet DM, respectively; basal EPLend represented basal endogenous loss of P which was approximately 190 mg/kg DMI.
as §2

[4] = both supplemented at 80 ppm, Cu source main effect

| SMILES | Difference to CuSO4 in gain to feed ratio (G:F) during day 15 to 28 (nursery pigs [1]; [4]) | G:F (d 15 to 28) (nursery pigs [1]; no phytase) | G:F (d 15 to 28) (nursery pigs [1]; with phytase 500 FTU/kg) | Difference to CuSO4 in bone Ca, P and ash (nursery pigs [2]; [4]) | Bone Ca (DM basis) (nursery pigs [2]; no phytase) | Bone P (DM basis) (nursery pigs [2]; no phytase) | Bone ash (DM basis) (nursery pigs [2]; no phytase) | Bone Ca (DM basis) (nursery pigs [2]; with phytase 500 FTU/kg) | Bone P (DM basis) (nursery pigs [2]; with phytase 500 FTU/kg) | Bone ash (DM basis) (nursery pigs [2]; with phytase 500 FTU/kg) | STTD of Ca (nursery pigs [3]; no phytase) | STTD of P (nursery pigs [3]; no phytase) | STTD of Ca (nursery pigs [3]; with phytase 500 FTU/kg) | STTD of P (nursery pigs [3]; with phytase 500 FTU/kg) | Absolute increase of STTD of Ca compared with ZnO (nursery pigs [3]; with phytase supplementation) | Absolute increase of STTD of P compared with ZnO (nursery pigs [3]; with phytase supplementation) | Absolute increase of STTD of Ca compared with ZnO (nursery pigs [3]; without phytase) | Absolute increase of STTD of P compared with ZnO (nursery pigs [3]; without phytase) |
| --- | --- | --- | --- | --- | --- | --- | --- | --- | --- | --- | --- | --- | --- | --- | --- | --- | --- | --- |
| CSCCC(O)C(=O)[O-].CSCCC(O)C(=O)[O-].[Cu+2] (stereo not drawn) [Cu(HMTBA)2] | no significant differences | 0.75 g/g | 0.84 g/g | no significant differences | 12.55% | 6.44% | 35.95% | 14.89% | 7.81% | 41.97% |  |  |  |  |  |  |  |  |
| O=S(=O)([O-])[O-].[Cu+2] [CuSO4, reference compound] |  | 0.76 g/g | 0.80 g/g |  | 13.04% | 6.65% | 36.69% | 14.14% | 7.38% | 40.41% |  |  |  |  |  |  |  |  |
| CSCCC(O)C(=O)[O-].CSCCC(O)C(=O)[O-].[Zn+2] (stereo not drawn) [Zn(HMTBA)2] |  |  |  |  |  |  |  |  |  |  | 53.30% | 32.65% | 65.63% | 46.36% | 6.45% | 12.68% | 4.81% | 29.98% |
| [O]=[Zn] [ZnO, reference compound] |  |  |  |  |  |  |  |  |  |  | 48.48% and 48.49% | 2.67% | 59.18% | 33.68% |  |  |  |  |
